pKi: −log10 of the molar value.
What was measured:
[1] = target: T1, human recombinant GR (Homo sapiens, UniProt P04150); test: Human Glucocorticoid Receptor (GR) Fluorescence Polarisation (FP) Binding Assay; conditions: Ki from IC50 by ligand depletion correction; displacement of Fluorome GS Red
T1 construct: purchased PanVera P2812
T1 sequence (P04150 1-777): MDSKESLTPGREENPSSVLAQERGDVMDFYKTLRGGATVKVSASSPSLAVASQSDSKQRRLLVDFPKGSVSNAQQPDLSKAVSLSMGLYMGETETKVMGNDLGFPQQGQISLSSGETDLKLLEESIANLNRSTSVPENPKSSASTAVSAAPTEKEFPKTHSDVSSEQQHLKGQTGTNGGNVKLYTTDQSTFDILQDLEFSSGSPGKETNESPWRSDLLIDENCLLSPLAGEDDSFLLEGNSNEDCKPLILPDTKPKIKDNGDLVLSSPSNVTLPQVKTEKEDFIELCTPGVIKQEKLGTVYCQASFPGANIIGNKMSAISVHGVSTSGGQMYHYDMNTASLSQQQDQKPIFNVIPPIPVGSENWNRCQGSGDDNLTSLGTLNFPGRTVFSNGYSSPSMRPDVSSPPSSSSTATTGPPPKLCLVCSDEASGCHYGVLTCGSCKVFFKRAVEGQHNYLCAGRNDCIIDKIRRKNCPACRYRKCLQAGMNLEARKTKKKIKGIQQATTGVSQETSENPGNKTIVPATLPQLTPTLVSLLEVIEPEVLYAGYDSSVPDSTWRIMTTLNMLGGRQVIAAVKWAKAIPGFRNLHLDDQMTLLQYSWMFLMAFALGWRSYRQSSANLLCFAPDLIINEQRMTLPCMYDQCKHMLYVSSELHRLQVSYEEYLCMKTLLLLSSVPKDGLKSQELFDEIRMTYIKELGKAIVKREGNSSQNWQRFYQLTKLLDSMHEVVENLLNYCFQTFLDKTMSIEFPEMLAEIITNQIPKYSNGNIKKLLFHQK
Description: The following is a description of a FP assay for measuring compound inhibition of labelled glucocorticoid binding to the human recombinant GR.
The binding affinity of test compounds was determined using a FP binding assay using human recombinant GR (PanVera P2812) and a fluorescent labelled glucocorticoid ligand (Fluorome GS Red) (PanVera P2894). The presence of inhibitors prevents the formation of a GS Red/GR complex resulting in a decrease in the measured polarisation value. The change in polarisation value in the presence of test compounds is used to calculate the binding affinity of the compound for GR.
This assay was performed in 384 well, black, round-bottom, polypropylene micro titre plates in a final volume of 20 μl. The assay contained 5 μl 1 nM GR (final concentration), 5 μl 0.5 nM Fluorome GS Red (final concentration) in the presence of 10p test compounds. Positive control wells (high polarisation) receive, 10 μl 2% (v:v) DMSO vehicle (1% (v/v) final concentration)+5 μl 1 nM GR and 5 μl 0.5 nM Fluorome GS Red. […] Assay blank background wells (used for normalisation) receive 15 μl 1×GS screening buffer+5 μl GR.
For the IC50 determination (concentration of compound that displaces 50% of the bound GS Red), compounds were tested at eight different concentrations in duplicate in two independently performed experiments. Compounds were prepared as solubilised solids at 10 mM in DMSO. On the day of assay, an 8 point half-log serial dilution (55 μl DMSO+25 μl compound solution) was prepared. A 1:50 dilution (1 μl compound solution+49 μl 1×GR screening buffer) was prepared for each compound. The compounds were prepared at 2× final assay concentration.
The plates were mixed and incubated for 4 hour at room temperature. FP was measured using an Envision Excite plate reader with 535 nm excitation and 590 nm emission interference filters.
Milli-polarisation (mP) values were calculated using the below equation: mP=1000*(S−G*P)/(S+G*P) where S and P are assay blank background subtracted fluorescence units, G=G-factor (1.07).
Compound IC50 values were calculated by plotting a [compound] v. % inhibition curve and fitting the data to a 4-parameter logistic fit equation.
10×GR screening buffer (100 mM potassium phosphate pH 7.4, 200 mM Na2MoO4, 1 mM EDTA, 20% (v/v) DMSO). To prepare 1×GR screening buffer, combine 1 ml 10×GR screening buffer (PanVera P2814)+1 ml stabilising peptide (PanVera P2815)+7.95 ml 4° C. MQ water. Add 50p 1M DTT, vortex and place on ice until use.

[2] = target: T2, glucocorticoid receptor (Homo sapiens, UniProt P04150); test: HepG2 Tyrosine Aminotransferase (TAT) Assay; format: cell-based
T2 construct: endogenous in cells; host or cells: HepG2
T2 sequence (P04150 1-777): T1 sequence (P04150 1-777)
Description: Glucocorticoid mediated activation of TAT occurs by transactivation of glucocorticoid response elements in the TAT promoter by glucocorticoid receptor-agonist complex.
HepG2 cells were cultured using MEME media supplemented with 10% (v/v) foetal bovine serum; 2 mM L-glutamine and 1% (v/v) NEAA at 37° C., 5%/95% (v/v) CO2/air.
Compounds were serially half log diluted in 100% (v/v) dimethylsulphoxide from a 10 mM stock.
HepG2 cells were then lysed with 30 μl of cell lysis buffer containing a protease inhibitor cocktail for 15 minutes at 4° C. […] After 2 hours incubation at 37° C. the reaction was terminated by the addition of 15 μl of 10 M aqueous potassium hydroxide solution, and the plates incubated for a further 30 minutes at 37° C.
[compound] and fitting the data to a 4 parameter logistic equation.

Row | pKi [1] | pKi [2] | Structure (SMILES)
1 | < 9.00 | 7.00 to 7.70 | Cn1cc(S(=O)(=O)N2CC[C@H]3Cc4c(cnn4-c4ccc(F)cc4)C[C@]3(C(=O)c3cc(C(F)(F)F)ccn3)C2)nn1 [Example 2P, ((4aR,8aS)-1-(4-fluorophenyl)-6-((1-methyl-1H-1,2,3-triazol-4-yl)sulfonyl)-4,4a,5,6,7,8,8a,9-octahydro-1H-pyrazolo[3,4-g]isoquinolin-4a-yl)(4-(trifluoromethyl)pyridin-2-yl)methanone]
2 | 9.00 to 9.30 | > 7.70 | O=C(c1ccccn1)[C@]12Cc3cnn(-c4ccc(F)cc4)c3C[C@@H]1CCN(S(=O)(=O)c1cccc(C(F)(F)F)n1)C2 [Example 2Q, ((4aR,8aS)-1-(4-fluorophenyl)-6-((6-(trifluoromethyl)pyridin-2-yl)sulfonyl)-4,4a,5,6,7,8,8a,9-octahydro-1H-pyrazolo[3,4-g]isoquinolin-4a-yl)(pyridin-2-yl)methanone]
3 | > 9.30 | > 7.70 | Cc1ccnc(C(=O)[C@]23Cc4cnn(-c5ccc(F)cc5)c4C[C@@H]2CCN(S(=O)(=O)c2cnn(C)n2)C3)c1 [Example 2R, ((4aR,8aS)-1-(4-fluorophenyl)-6-((2-methyl-2H-1,2,3-triazol-4-yl)sulfonyl)-4,4a,5,6,7,8,8a,9-octahydro-1H-pyrazolo[3,4-g]isoquinolin-4a-yl)(4-methylpyridin-2-yl)methanone]
4 | > 9.30 | 7.00 to 7.70 | CCCn1ncc(S(=O)(=O)N2CC[C@H]3Cc4c(cnn4-c4ccc(F)cc4)C[C@]3(C(=O)c3cscn3)C2)n1 [Example 2S, ((4aR,8aS)-1-(4-fluorophenyl)-6-((2-propyl-2H-1,2,3-triazol-4-yl)sulfonyl)-4,4a,5,6,7,8,8a,9-octahydro-1H-pyrazolo[3,4-g]isoquinolin-4a-yl)(thiazol-4-yl)methanone]
5 | < 9.00 | 7.00 to 7.70 | N#Cc1cccc(S(=O)(=O)N2CC[C@H]3Cc4c(cnn4-c4ccc(F)cc4)C[C@]3(C(=O)c3ccccn3)C2)c1 [Example 2T, 3-(((4aR,8aS)-1-(4-fluorophenyl)-4a-picolinoyl-4a,5,7,8,8a,9-hexahydro-1H-pyrazolo[3,4-g]isoquinolin-6(4H)-yl)sulfonyl)benzonitrile]
6 | < 9.00 | 7.00 to 7.70 | O=C(c1ccccn1)[C@]12Cc3cnn(-c4ccc(F)cc4)c3C[C@@H]1CCN(S(=O)(=O)c1ccc(C(F)(F)F)c(F)c1)C2 [Example 2U, ((4aR,8aS)-6-((3-fluoro-4-(trifluoromethyl)phenyl)sulfonyl)-1-(4-fluorophenyl)-4,4a,5,6,7,8,8a,9-octahydro-1H-pyrazolo[3,4-g]isoquinolin-4a-yl)(pyridin-2-yl)methanone]
7 | < 9.00 | 7.00 to 7.70 | CN1CCOc2cc(S(=O)(=O)N3CC[C@H]4Cc5c(cnn5-c5ccc(F)cc5)C[C@]4(C(=O)c4ccccn4)C3)cnc21 [Example 2V, ((4aR,8aS)-1-(4-fluorophenyl)-6-((4-methyl-3,4-dihydro-2H-pyrido[3,2-b][1,4]oxazin-7-yl)sulfonyl)-4,4a,5,6,7,8,8a,9-octahydro-1H-pyrazolo[3,4-g]isoquinolin-4a-yl)(pyridin-2-yl)methanone]
8 | < 9.00 | < 7.00 | CCCn1nncc1S(=O)(=O)N1CC[C@H]2Cc3c(cnn3-c3ccc(F)cc3)C[C@]2(C(=O)c2nccs2)C1 [Example 2W, ((4aR,8aS)-1-(4-fluorophenyl)-6-((1-propyl-1H-1,2,3-triazol-5-yl)sulfonyl)-4,4a,5,6,7,8,8a,9-octahydro-1H-pyrazolo[3,4-g]isoquinolin-4a-yl)(thiazol-2-yl)methanone]
9 | < 9.00 | < 7.00 | Cn1nncc1S(=O)(=O)N1CC[C@H]2Cc3c(cnn3-c3ccc(F)cc3)C[C@]2(C(=O)c2cc(C(F)(F)F)ccn2)C1 [Example 2X, ((4aR,8aS)-1-(4-fluorophenyl)-6-((1-methyl-1H-1,2,3-triazol-5-yl)sulfonyl)-4,4a,5,6,7,8,8a,9-octahydro-1H-pyrazolo[3,4-g]isoquinolin-4a-yl)(4-(trifluoromethyl)pyridin-2-yl)methanone]
10 | < 9.00 | < 7.00 | Cn1ncc(S(=O)(=O)N2CC[C@H]3Cc4c(cnn4-c4ccc(F)cc4)C[C@]3(C(=O)c3nccs3)C2)n1 [Example 2Y, ((4aR,8aS)-1-(4-fluorophenyl)-6-((2-methyl-2H-1,2,3-triazol-4-yl)sulfonyl)-4,4a,5,6,7,8,8a,9-octahydro-1H-pyrazolo[3,4-g]isoquinolin-4a-yl)(thiazol-2-yl)methanone]
11 | > 9.30 | 7.00 to 7.70 | CC(C)n1ncc(S(=O)(=O)N2CC[C@H]3Cc4c(cnn4-c4ccc(F)cc4)C[C@]3(C(=O)c3nccs3)C2)n1 [Example 2Z, ((4aR,8aS)-1-(4-fluorophenyl)-6-((2-isopropyl-2H-1,2,3-triazol-4-yl)sulfonyl)-4,4a,5,6,7,8,8a,9-octahydro-1H-pyrazolo[3,4-g]isoquinolin-4a-yl)(thiazol-2-yl)methanone]
